Assay results published in patent US20230192617A1, “AZABICYCLIC(THIO)AMIDES AS FUNGICIDAL COMPOUNDS” (Bayer CropScience Aktiengesellschaft, priority 2020, published 2023).

Tests used:
[1] = Measurement of Log P values by HPLC on reversed phase columns (EEC directive 79/831 Annex V.A8); format: physicochemical; conditions: reversed phase HPLC column, method [a]: LC-UV, acidic range, 0.1% formic acid in water and acetonitrile as eluent
In short: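 Log P derived from retention on reversed-phase columns (EEC directive 79/831 Annex V.A8), LC-UV, acetonitrile gradient 10% to 95% against water containing 0.1% formic acid, 0.001 M ammonium acetate, or 0.1% phosphoric acid; several values per method separated by "+".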

Pyrenophora teres [2] = assay: B-10. Pyrenophora teres in vitro cell test; format: cell-based; conditions: 144 h, 20 ppm of active ingredient, 6 days incubation, liquid culture, absorbance, read-out: efficacy (inhibition of fungal growth)
In short: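 Liquid-culture assay on a P. teres spore suspension with compounds added to the medium from DMSO solutions, final DMSO ≤1%. Mycelium growth read spectrometrically after 6 days. Inhibition calculated from absorbance against untreated control wells.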

Botrytis cinerea [3] = assay: B-11. Botrytis cinerea in vitro cell test; format: cell-based; conditions: 144 h, 20 ppm of active ingredient, 6 days incubation, liquid culture, absorbance, read-out: efficacy (inhibition of fungal growth)
In short: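 B. cinerea spores were grown in liquid culture with compound (DMSO ≤1% final). Mycelium growth was measured spectrometrically after 6 days, with inhibition taken as absorbance relative to untreated control wells.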

[4] = test system: Colletotrichum lindemuthianum; assay: B-8. Colletotrichum lindemuthianum in vitro cell test; format: cell-based; conditions: 144 h, 20 ppm of active ingredient, 6 days incubation, liquid culture, absorbance, read-out: efficacy (inhibition of fungal growth)
In short: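 Liquid-culture germination/growth test: compounds in ≤1% final DMSO were added to spore-containing medium. Fungal growth was quantified spectrophotometrically after 6 days of incubation and expressed as inhibition versus untreated controls.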

[5] = test system: Colletotrichum lindemuthianum; assay: In vivo preventive test on Colletotrichum lindemuthianum (leaf spot on bean); conditions: 168 h, 500 ppm of active ingredient, preventive spray on bean, evaluated 7 days after inoculation, read-out: efficacy
In short: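 Young bean plants sprayed with compound in DMSO/acetone/Tween 80 diluted in water; solvent-only controls. Inoculated 24 h later with C. lindemuthianum spore suspension, then kept 24 h at 20 °C/100% RH and 6 days at 20 °C/90% RH.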

Sphaerotheca fuliginea = assay: In vivo preventive test on Sphaerotheca fuliginea (powdery mildew on cucurbits); conditions: Podosphaera fuliginea, 192 h; 500 ppm of active ingredient; preventive spray on gherkin; evaluated 8 days after inoculation; read-out: efficacy
In short: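 This is a preventive spray test on gherkin seedlings, with compound formulated in DMSO/acetone/Tween 80 in water and solvent-only controls. Spore inoculation followed one day after treatment. Incubation lasted 8 days at 20 °C, 70–80% RH.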

Pyrenophora teres [6] = assay: In vivo preventive test on Pyrenophora teres (net blotch on barley); conditions: 240 h, 500 ppm of active ingredient, preventive spray on barley, evaluated 10 days after inoculation, read-out: efficacy
In short: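 Net blotch spores were sprayed onto barley leaves one day after foliar treatment with water-diluted DMSO/acetone/Tween 80 formulations (solvent-only controls). Plants were kept at 20° C: first 48 hours at 100% relative humidity, then 8 days at 70-80%.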

Alternaria alternata = Alternaria alternata in vitro cell test; format: cell-based; conditions: 120 h, 20 ppm of active ingredient, liquid culture, 5 days incubation, spectrometric measurement of mycelium growth, read-out: efficacy (inhibition of fungal growth)
In short: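 Spectrometric readout of mycelial growth after 5-day incubation gauged compound effects on spore germination and growth of A. alternata in liquid medium. Compounds were delivered in DMSO at ≤1% final. Absorbance was compared with untreated controls to give inhibition.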

Botrytis cinerea [7] = assay: In vivo preventive test on Botrytis cinerea (grey mould); conditions: 500 ppm of active ingredient, preventive spray on gherkin or cabbage, evaluated 4 to 5 days after inoculation, read-out: efficacy
In short: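 Preventive spray on cabbage or gherkin seedlings, with compound formulated in DMSO/acetone/Tween 80 and water-diluted, preceded spore inoculation by 24 hours. Cabbage was held 4 to 5 days at 20° C., 100% relative humidity; gherkin 4 to 5 days at 17° C., 90% relative humidity.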

Septoria tritici = assay: B-9. Septoria tritici in vitro cell test; format: cell-based; conditions: Zymoseptoria tritici, 168 h; 20 ppm of active ingredient; 7 days incubation; liquid culture, absorbance; read-out: efficacy (inhibition of fungal growth)
Experimental: B-9. Septoria tritici In Vitro Cell Test [table] Fungicides were solubilized in DMSO and the solution used to prepare the required range of concentrations. The final concentration of DMSO used in the assay was ≤1%. A spore suspension of S. tritici was prepared and diluted to the desired spore density. Fungicides were evaluated for their ability to inhibit spore germination and mycelium growth in liquid culture assay. The compounds were added in the desired concentration to the culture medium with spores. After 7 days incubation, fungi-toxicity of compounds was determined by spectrometric measurement of mycelium growth. Inhibition of fungal growth was determined by comparing the absorbance values in wells containing the fungicides with the absorbance in control wells without fungicides.

Alternaria brassicae = assay: In vivo preventive test on Alternaria brassicae (leaf spot on radish or cabbage); conditions: 500 ppm of active ingredient, preventive spray on radish or cabbage, evaluated 3 to 4 days after inoculation, read-out: efficacy
In short: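 Protective spray on young radish or cabbage: actives in water diluted from DMSO/acetone/Tween 80, with solvent-only controls. Leaves were challenged after 24 h with a spore suspension, and plants were held at 100% RH, 20 °C for 3 to 4 days.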

SMILES | chromatographic logP [1] | inhibition at 20 ppm (Pyrenophora teres [2]) [%] | inhibition at 20 ppm (Botrytis cinerea [3]) [%] | inhibition at 20 ppm [4] [%] | pest or weed control at 500 ppm [5] [%] | pest or weed control at 500 ppm (Sphaerotheca fuliginea) [%] | pest or weed control at 500 ppm (Pyrenophora teres [6]) [%] | inhibition at 20 ppm (Alternaria alternata) [%] | pest or weed control at 500 ppm (Botrytis cinerea [7]) [%] | inhibition at 20 ppm (Septoria tritici) [%] | pest or weed control at 500 ppm (Alternaria brassicae) [%]
O=C(NCC(F)(F)c1ccc(Br)cc1Cl)c1c(Oc2cccc(Cl)c2)nnc2c1CCCC2 [I-209] | 4.11 | 90 to 100 | 90 to 100 | 90 to 100 | 90 to 100 | 90 to 100 | 90 to 100 | 90 to 100 | 90 to 100 | 80 to 89 | –
O=C(NCC(F)(F)c1ccc(Br)cc1Cl)c1c(Oc2cccc(C(F)F)c2)nnc2c1CCCC2 [I-208] | 3.84 | 90 to 100 | 90 to 100 | 90 to 100 | 90 to 100 | 90 to 100 | 90 to 100 | 90 to 100 | 90 to 100 | 90 to 100 | –
O=C(NCC(F)(F)c1ccc(Br)cc1Cl)c1c(Oc2cccc(C(F)(F)F)c2)nnc2c1CCCC2 [I-207] | 4.28 | 90 to 100 | 90 to 100 | 90 to 100 | 90 to 100 | 90 to 100 | 90 to 100 | 90 to 100 | 90 to 100 | 90 to 100 | –
COc1cc([C@@H](F)CNC(=O)c2c(Oc3cccc(C(F)(F)F)c3)nnc3ccccc23)ccc1Cl (racemic) [I-176] | 3.92 | 90 to 100 | 90 to 100 | – | 70 to 79 | – | 80 to 89 | 90 to 100 | – | 80 to 89 | 90 to 100
O=C(NCC(F)(F)c1ccc(Cl)cc1Cl)c1c(Oc2cccc(Cl)c2F)nnc2c1CCC2 [I-201] | 3.94 | 90 to 100 | 90 to 100 | 90 to 100 | 90 to 100 | 90 to 100 | 90 to 100 | 90 to 100 | 90 to 100 | 90 to 100 | –
Cc1cc(Cl)ccc1C(F)(F)CNC(=O)c1c(Oc2cccc(C3CC3)c2F)nnc2c1CCCC2 [I-147] | 4.34 | 90 to 100 | – | 90 to 100 | 90 to 100 | 90 to 100 | 90 to 100 | 90 to 100 | 90 to 100 | 90 to 100 | 90 to 100

Now from value to molecule, other results behind:

chromatographic logP [1] | SMILES | inhibition at 20 ppm (Pyrenophora teres [2]) [%] | inhibition at 20 ppm (Botrytis cinerea [3]) [%] | inhibition at 20 ppm [4] [%] | pest or weed control at 500 ppm [5] [%] | pest or weed control at 500 ppm (Sphaerotheca fuliginea) [%] | pest or weed control at 500 ppm (Pyrenophora teres [6]) [%] | inhibition at 20 ppm (Alternaria alternata) [%] | pest or weed control at 500 ppm (Botrytis cinerea [7]) [%] | inhibition at 20 ppm (Septoria tritici) [%] | pest or weed control at 500 ppm (Alternaria brassicae) [%]
4.05 | O=C(NCC(F)(F)c1ccc(Cl)cc1Cl)c1c(Oc2cccc(Cl)c2F)nnc2c1CCCC2 [I-194] | 90 to 100 | 90 to 100 | 90 to 100 | 90 to 100 | 90 to 100 | 90 to 100 | 90 to 100 | 90 to 100 | 90 to 100 | –
4.17 | Cc1cc(Br)ccc1C(F)(F)CNC(=O)c1c(Oc2cccc(C(F)(F)F)c2)nnc2c1CCC2 [I-206] | 90 to 100 | 90 to 100 | 90 to 100 | 90 to 100 | 90 to 100 | 90 to 100 | 90 to 100 | 90 to 100 | 90 to 100 | –
4.05 | Cc1ccc(C(F)(F)CNC(=O)c2c(Oc3cccc(C(F)(F)F)c3)nnc3c2CCCC3)c(C)c1 [I-115] | 90 to 100 | – | 90 to 100 | 90 to 100 | 90 to 100 | 90 to 100 | 90 to 100 | 90 to 100 | 90 to 100 | 90 to 100
